Among the data in the supplement of paper PMC11061612 are Bliss excess values, retold here.

Holding throughout (assay): Bliss excess, mean over the matrix (fraction); higher = more synergy
One test relates to GI-ME-N (Neuroblastoma). A digest of the protocol: (§1)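 Bliss excess equals the observed combination effect minus the expected value EA + EB − EA·EB, where EA and EB are the effects of each agent alone. Combination Emax is the second-highest inhibition within the matrix. Inhibition was scaled from CellTiter-Glo 2.0 luminescence, with 0 set by vehicle wells and 1 by blank wells, after 72 hours of two-drug dosing of cells plated in 1536-well plates.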

A further test relates to ARH-77 (Non-Cancerous). A digest of the protocol:
as §1

A further test relates to U-2-OS (Osteosarcoma). In short, it runs like this: as §1
The subject of test [1] is NCI-H1693 (Lung Adenocarcinoma). In short, it runs like this: as §1
Another test relates to 8-MG-BA (Glioblastoma). A digest of the protocol: as §1
Test [2] relates to PANC-10-05 (Pancreatic Carcinoma). In short, it runs like this: as §1

`CCN(CCO)CCCOc1ccc2c(Nc3cc(CC(=O)Nc4cccc(F)c4)[nH]n3)ncnc2c1` [AZD2811] + C[C@@H]1COCCN1C2=NC(=NC(=C2)C3(CC3)[S@](=N)(=O)C)C4=C5C=CNC5=NC=C4 [AZD6738] (first compound max 1 µM, 7x7, partner max 10 µM): the Bliss excess is -0.0437 in the test with GI-ME-N (Neuroblastoma); 0.0254 with ARH-77 (Non-Cancerous); -0.0297 with U-2-OS (Osteosarcoma); -0.0654 in test [1]; -0.0212 with 8-MG-BA (Glioblastoma); -0.0793 in test [2].

Consider `CCN(CCO)CCCOc1ccc2c(Nc3cc(CC(=O)Nc4cccc(F)c4)[nH]n3)ncnc2c1` [AZD2811] + O=C(c1cc(Cc2n[nH]c(=O)c3ccccc23)ccc1F)N1CCN(C(=O)C2CC2)CC1 [Olaparib] (first compound max 1 µM, 7x7, partner max 10 µM), for which the Bliss excess with GI-ME-N (Neuroblastoma) was -0.0233; in the test on ARH-77 (Non-Cancerous) it was 0.0114; with U-2-OS (Osteosarcoma) it was 0.0112; in test [1] it was 0.007; in the test with 8-MG-BA (Glioblastoma), 0.0327; in test [2] it was -0.0468.

Regarding `CN(CCO)CC[C@H](CSc1ccccc1)Nc1ccc(S(=O)(=O)NC(=O)c2ccc(N3CCC([C@@H](O)c4ccccc4-c4ccc(Cl)cc4)CC3)cc2)cc1S(=O)(=O)C(F)(F)F` [AZD4320] + C1CN(CCC1(C(=O)N[C@@H](CCO)C2=CC=C(C=C2)Cl)N)C3=NC=NC4=C3C=CN4 [Capivasertib] (first compound max 1 µM, 7x7, partner max 3 µM), the Bliss excess in the test on GI-ME-N (Neuroblastoma) is -0.0729; in the test with ARH-77 (Non-Cancerous) it was 0.0277; in the test with U-2-OS (Osteosarcoma) it was -0.0609; in test [1] it was -0.0456; in the test with 8-MG-BA (Glioblastoma), -0.0071; in test [2], -0.0338.

Regarding `CN(CCO)CC[C@H](CSc1ccccc1)Nc1ccc(S(=O)(=O)NC(=O)c2ccc(N3CCC([C@@H](O)c4ccccc4-c4ccc(Cl)cc4)CC3)cc2)cc1S(=O)(=O)C(F)(F)F` [AZD4320] + C=CCn1c(=O)c2cnc(Nc3ccc(N4CCN(C)CC4)cc3)nc2n1-c1cccc(C(C)(C)O)n1 [AZD1775] (first compound max 1 µM, partner max 1 µM), the Bliss excess is -0.0524 with GI-ME-N (Neuroblastoma); -0.0449 in the test on ARH-77 (Non-Cancerous); -0.0059 in the test on U-2-OS (Osteosarcoma); -0.0047 in test [1]; -0.0417 in the test on 8-MG-BA (Glioblastoma); -0.0174 in test [2].

As to `CN(CCO)CC[C@H](CSc1ccccc1)Nc1ccc(S(=O)(=O)NC(=O)c2ccc(N3CCC([C@@H](O)c4ccccc4-c4ccc(Cl)cc4)CC3)cc2)cc1S(=O)(=O)C(F)(F)F` [AZD4320] + CCN(CCO)CCCOc1ccc2c(Nc3cc(CC(=O)Nc4cccc(F)c4)[nH]n3)ncnc2c1 [AZD2811] (first compound max 1 µM, 7x7, partner max 1 µM), the Bliss excess in the test with GI-ME-N (Neuroblastoma) was -0.057; in the test with ARH-77 (Non-Cancerous) it was 0.0992; with U-2-OS (Osteosarcoma), 0.0076; in test [1], -0.003; with 8-MG-BA (Glioblastoma) it was 0.003; in test [2], -0.0758.

Take `CN(CCO)CC[C@H](CSc1ccccc1)Nc1ccc(S(=O)(=O)NC(=O)c2ccc(N3CCC([C@@H](O)c4ccccc4-c4ccc(Cl)cc4)CC3)cc2)cc1S(=O)(=O)C(F)(F)F` [AZD4320] + CN(C)CCCOc1ccc(-c2ccc3ncc4c(c3c2)n(C2CCOCC2)c(=O)n4C)cn1 [AZD0156] (first compound max 1 µM, 7x7, partner max 1 µM): the Bliss excess was -0.0454 in the test on GI-ME-N (Neuroblastoma); -0.0283 in the test with ARH-77 (Non-Cancerous); -0.0215 in the test with U-2-OS (Osteosarcoma); -0.0226 in test [1]; -0.0146 in the test with 8-MG-BA (Glioblastoma); -0.0489 in test [2].

Consider `CN(CCO)CC[C@H](CSc1ccccc1)Nc1ccc(S(=O)(=O)NC(=O)c2ccc(N3CCC([C@@H](O)c4ccccc4-c4ccc(Cl)cc4)CC3)cc2)cc1S(=O)(=O)C(F)(F)F` [AZD4320] + C[C@@H]1COCCN1C2=NC(=NC(=C2)C3(CC3)[S@](=N)(=O)C)C4=C5C=CNC5=NC=C4 [AZD6738] (first compound max 1 µM, 7x7, partner max 10 µM), for which the Bliss excess in the test with GI-ME-N (Neuroblastoma) is -0.0403; with ARH-77 (Non-Cancerous), -0.0049; in the test on U-2-OS (Osteosarcoma), -0.0394; in test [1] it was -0.0055; in the test on 8-MG-BA (Glioblastoma), 0.0107; in test [2], -0.0476.

As for `CN(CCO)CC[C@H](CSc1ccccc1)Nc1ccc(S(=O)(=O)NC(=O)c2ccc(N3CCC([C@@H](O)c4ccccc4-c4ccc(Cl)cc4)CC3)cc2)cc1S(=O)(=O)C(F)(F)F` [AZD4320] + C[C@@H](Nc1cc(F)cc(F)c1)c1cc(C(=O)N(C)C)cc2c(=O)cc(N3CCOCC3)oc12 [AZD8186] (first compound max 1 µM, 7x7, partner max 3 µM), the Bliss excess in the test with GI-ME-N (Neuroblastoma) is 0.0272; in the test on ARH-77 (Non-Cancerous) it was 0.0067; with U-2-OS (Osteosarcoma), 0.007; in test [1], 0.0468; in the test on 8-MG-BA (Glioblastoma), -0.0301; in test [2] it was -0.073.

Consider `CN(CCO)CC[C@H](CSc1ccccc1)Nc1ccc(S(=O)(=O)NC(=O)c2ccc(N3CCC([C@@H](O)c4ccccc4-c4ccc(Cl)cc4)CC3)cc2)cc1S(=O)(=O)C(F)(F)F` [AZD4320] + Cc1cc2ncnn2cc1Nc1ncc2c(n1)n(C1CCOCC1)c(=O)n2C [AZD7648] (first compound max 1 µM, 7x7, partner max 10 µM), for which the Bliss excess in the test on GI-ME-N (Neuroblastoma) is -0.0775; in the test on ARH-77 (Non-Cancerous), 0.0238; in the test on U-2-OS (Osteosarcoma), -0.0294; in test [1], -0.0639; with 8-MG-BA (Glioblastoma) it was -0.0188; in test [2] it was -0.0652.

For `CN(CCO)CC[C@H](CSc1ccccc1)Nc1ccc(S(=O)(=O)NC(=O)c2ccc(N3CCC([C@@H](O)c4ccccc4-c4ccc(Cl)cc4)CC3)cc2)cc1S(=O)(=O)C(F)(F)F` [AZD4320] + Cn1cnc2c(F)c(Nc3ccc(Br)cc3Cl)c(C(=O)NOCCO)cc21 [Selumetinib] (first compound max 1 µM, 7x7, partner max 3 µM), the Bliss excess is 0.0196 in the test with GI-ME-N (Neuroblastoma); -0.0039 with ARH-77 (Non-Cancerous); 0.0351 in the test with U-2-OS (Osteosarcoma); 0.0031 in test [1]; 0.0614 with 8-MG-BA (Glioblastoma); 0.0065 in test [2].

As for `COc1nnc2ccc(N3CCC(c4ccc(OCCN5CCN(C)C(=O)[C@H]5C)cc4)CC3)nn12` [AZD5153] + C=CCn1c(=O)c2cnc(Nc3ccc(N4CCN(C)CC4)cc3)nc2n1-c1cccc(C(C)(C)O)n1 [AZD1775] (first compound max 1 µM, partner max 1 µM), the Bliss excess in the test on GI-ME-N (Neuroblastoma) is -0.0231; with ARH-77 (Non-Cancerous), -0.066; with U-2-OS (Osteosarcoma) it was -0.0304; in test [1], -0.0888; in the test on 8-MG-BA (Glioblastoma), -0.0571; in test [2] it was -0.132.
